Experimental data from US11028041B2, “Second generation GRP94-selective inhibitors” (University of Kansas, priority 2017, dated 2021).

Legend:
[1] = molecular target: Hsp90α (Homo sapiens (Human), UniProt P07900); experiment: Fluorescence polarization assay against Hsp90α; format: binding; details: FITC-GDA tracer, 100 μM highest concentration tested, average of two independent experiments ± SEM, read-out: Apparent Kd Hsp90α
Description: Fluorescence Polarization. The assay was performed in 96-well black, flat-bottom plates with a final volume of 100 μL. 25 μL of assay buffer (20 mM HEPES, pH 7.3, 50 mM KCl, 5 mM MgCl2, 20 mM Na2MoO4, 2 mM DTT, 0.1 mg/mL BGG, and 0.01% NP-40) were added, followed by 25 μL of assay buffer containing 6 nM FITC-GDA (fluorescent tracer, stock in DMSO, diluted in assay buffer) and 50 μL of assay buffer containing 10 nM of either Grp94 or Hsp90α were added to each well. For each plate, wells containing buffer only (background), tracer in buffer only (low polarization control) and protein, tracer, and 1% DMSO (final concentration, high polarization control) were included. Compounds were then added with a final concentration of DMSO=1%. Plates were incubated at 4° C. with rocking for 24 h. […] Polarization values were correlated to % tracer bound and compound concentrations.

[2] = system: A549 cells; experiment: Wound healing scratch assay, A549; format: cell-based; details: 500 nM, 24 h
Description: (§1) Cell Culture. […] Wound Healing Scratch Assay. […] Images were processed and % migration determined via ImageJ. All experiments were performed in quadruplicate.

[3] = system: MDA-MB-231 cells; details: 500 nM, after 24 h
Description: (§2) Wound Healing Scratch Assay. Cells were counted via Trypan blue exclusion and seeded in 12-well plates at 200,000 cells/mL/well and returned to the incubator for 24 h. Scratches were made with a 0.1-10 μL pipette tip, then cells were washed with PBS and fresh media was added. […] Plates were returned to the incubator until 24 h pictures were taken. Images were processed and % migration determined via ImageJ. All experiments were performed in quadruplicate.

[4] = system: PC3-MM2 cells; details: 500 nM, after 24 h
Description: as §2

[5] = system: A549 cells; experiment: Anti-proliferation MTS/PMS assay, A549; format: cell-based; details: Homo sapiens, 72 h, average of two independent experiments ± SEM
Description: (§3) Compounds or vehicle were administered in DMSO (1% DMSO final concentration) and the plates were placed back in the incubator. After 72 h, the % viable cells were determined using the MTS/PMS cell proliferation kit (Promega) per the manufacturer's instructions. Cells treated with vehicle were normalized to 100% viable and compound treated wells were adjusted accordingly.

[6] = system: Akt; experiment: Western blot analysis, cytosolic Hsp90-dependent client protein Akt; format: cell-based; details: MDA-MB-231, PC3-MM2, SK-MEL-28, A549; 24 h; geldanamycin at 0.5 μM
Description: (§4) Western Blot Analysis. […] Cells were harvested in cold PBS and lysed using MPER (Thermo Scientific) supplemented with protease inhibitors (Roche) according the manufacturer's instructions. Cell lysates were obtained by centrifugation at 15,000 rpm for 10 min at 4° C. Protein concentrations were determined using the Pierce BCA assay kit following the manufacturer's instructions. Equal amounts of protein were separated via gel electrophoresis under reducing conditions (10% acrylamide gels) then transferred to PVDF membranes and immunoblotted with the corresponding primary antibodies. Membranes were then incubated with the correct HRP-labeled secondary antibody, developed with a chemiluminescent substrate, and visualized.

[7] = system: PC3-MM2 cells; experiment: Anti-proliferation MTS/PMS assay, PC3-MM2; format: cell-based; details: Homo sapiens, PC3MM2, 72 h, average of two independent experiments ± SEM
Description: as §3

[8] = system: SK-MEL-28 cells; experiment: Anti-proliferation MTS/PMS assay, SK-MEL-28; format: cell-based; details: Homo sapiens, 72 h, average of two independent experiments ± SEM
Description: as §3

[9] = system: MDA-MB-231 cells; experiment: Anti-proliferation MTS/PMS assay, MDA-MB-231; format: cell-based; details: Homo sapiens, 72 h, average of two independent experiments ± SEM
Description: as §3

[10] = system: SK-MEL-28 cells; experiment: Wound healing scratch assay, SK-MEL-28; format: cell-based; details: after 24 h
Description: as §1

[11] = system: Hsp70; experiment: Western blot analysis, Hsp70 induction; format: cell-based; details: MDA-MB-231, PC3-MM2, SK-MEL-28, A549; 24 h; geldanamycin at 0.5 μM
Description: as §4

Row | Structure (SMILES) | Kd [1] [µM] | other results
1 | COC(=O)c1c(O)cc(O)c(Cl)c1CCc1ccccc1Cc1ccc(Cl)cc1 [Compound 29, methyl 3-chloro-2-(2-(4-chlorobenzyl)phenethyl)-4,6-dihydroxybenzoate] | > 100 | –
2 | COC(=O)c1c(O)cc(O)c(Cl)c1CCc1cccc(O)c1Cc1ccccc1 [Compound 24, methyl 2-(2-benzyl-3-hydroxyphenethyl)-3-chloro-4,6-dihydroxybenzoate] | 2 ± 0.2 | –
3 | COC(=O)c1c(O)cc(O)c(Cl)c1CCc1ccc(OC)cc1Cc1ccccc1 [Compound 17, methyl 2-(2-benzyl-4-methoxyphenethyl)-3-chloro-4,6-dihydroxybenzoate] | 2.6 ± 0.6 | –
4 | COC(=O)c1c(O)cc(O)c(Cl)c1CCc1cc(O)ccc1Cc1ccccc1 [Compound 22, methyl 2-(2-benzyl-5-hydroxyphenethyl)-3-chloro-4,6-dihydroxybenzoate] | 2.1 ± 0.1 | –
5 | COC(=O)c1c(O)cc(O)c(Cl)c1CCc1ccc(N)cc1Cc1ccccc1 [Compound 20, methyl 2-(4-amino-2-benzylphenethyl)-3-chloro-4,6-dihydroxybenzoate] | 0.34 ± 0.07 | –
6 | COC(=O)c1c(O)cc(O)c(Cl)c1CCc1ccccc1Cc1ccc(F)cc1 [Compound 30, methyl 3-chloro-2-(2-(4-fluorobenzyl)phenethyl)-4,6-dihydroxybenzoate] | – | anti-migratory effect [2]: demonstrated an anti-migratory effect; % migration [3]: 38-40%; % migration [4]: 38-40%; GI50 [5]: 16.7 ± 1.2 µM; degradation of Akt [6]: did not induce the degradation of Akt; GI50 [7]: 18.3 ± 2.3 µM; GI50 [8]: 16.6 ± 1.2 µM; GI50 [9]: 22.4 ± 1.9 µM; effect on migration [10]: demonstrated a susceptibility to Grp94 inhibition; induction of Hsp70 [11]: nor did it result in the induction of Hsp70
7 | COC(=O)c1c(O)cc(O)c(Cl)c1CCc1cc(N)ccc1Cc1ccccc1 [Compound 19, methyl 2-(5-amino-2-benzylphenethyl)-3-chloro-4,6-dihydroxybenzoate] | 1 ± 0.1 | –
8 | COC(=O)c1c(O)cc(O)c(Cl)c1CCc1ccccc1Cc1cccc(Cl)c1 [Compound 28, methyl 3-chloro-2-(2-(3-chlorobenzyl)phenethyl)-4,6-dihydroxybenzoate] | 44.6 ± 2 | –
9 | COC(=O)c1c(O)cc(O)c(Cl)c1CCc1cc(OC)ccc1Cc1ccccc1 [Compound 16, methyl 2-(2-benzyl-5-methoxyphenethyl)-3-chloro-4,6-dihydroxybenzoate] | 2.2 ± 0.2 | –
10 | CCOc1ccccc1Cc1ccccc1CCc1c(Cl)c(O)cc(O)c1C(=O)OC [Compound 25, methyl 3-chloro-2-(2-(2-ethoxybenzyl)phenethyl)-4,6-dihydroxybenzoate] | > 100 | –
11 | COC(=O)c1c(O)cc(O)c(Cl)c1CCc1ccccc1Cc1ccccc1OC [Compound 26, methyl 3-chloro-4,6-dihydroxy-2-(2-(2-methoxybenzyl)phenethyl)benzoate] | > 100 | –
12 | COC(=O)c1c(O)cc(O)c(Cl)c1CCc1ccccc1Cc1ccccc1 [Compound 6, methyl 2-(2-benzylphenethyl)-3-chloro-4,6-dihydroxybenzoate] | 20.7 ± 0.5 | –
13 | COC(=O)c1c(O)cc(O)c(Cl)c1CCc1ccc(O)cc1Cc1ccccc1 [Compound 23, methyl 2-(2-benzyl-4-hydroxyphenethyl)-3-chloro-4,6-dihydroxybenzoate] | 0.92 ± 0.03 | –
14 | COC(=O)c1c(O)cc(O)c(Cl)c1CCc1cccc(OC)c1Cc1ccccc1 [Compound 18, methyl 2-(2-benzyl-3-methoxyphenethyl)-3-chloro-4,6-dihydroxybenzoate] | 13.7 ± 1.4 | –
15 | COC1=C2C[C@@H](C)C[C@H](OC)[C@H](O)[C@@H](C)/C=C(\C)[C@H](OC(N)=O)[C@@H](OC)/C=C\C=C(/C)C(=O)NC(=CC1=O)C2=O [geldanamycin, reference compound] | – | degradation of Akt [6]: induced the degradation of Akt; induction of Hsp70 [11]: increased the levels of Hsp70
16 | COC(=O)c1c(O)cc(O)c(Cl)c1CCc1cccc(Cc2ccccc2)c1 [Compound 7, methyl 2-(3-benzylphenethyl)-3-chloro-4,6-dihydroxybenzoate] | > 100 | –
17 | COC(=O)c1c(O)cc(O)c(Cl)c1CCc1ccccc1Cc1ccccc1Cl [Compound 27, methyl 3-chloro-2-(2-(2-chlorobenzyl)phenethyl)-4,6-dihydroxybenzoate] | > 100 | –
